Data reported in patent publication US8389545B2, “Quinolone M1 receptor positive allosteric modulators” (Merck, Sharp & Dohme, Corp., priority 2005, dated 2013).
pEC50: −log10 of the molar value.

The molecules below were run against T1, acetylcholine muscarinic M1 receptor (Homo sapiens, UniProt P11229) (assay: muscarinic FLIPR assay: intracellular calcium in CHOnfat/hM1 cells with EC20 acetylcholine). Settings: FLIPR Ca2+, 4 min preincubation then EC20 acetylcholine (3 nM final).
T1 construct: expressed in transfected cells; host or cells: CHOnfat cells (CHO; Geneticin selection)
T1 sequence (P11229 1-460): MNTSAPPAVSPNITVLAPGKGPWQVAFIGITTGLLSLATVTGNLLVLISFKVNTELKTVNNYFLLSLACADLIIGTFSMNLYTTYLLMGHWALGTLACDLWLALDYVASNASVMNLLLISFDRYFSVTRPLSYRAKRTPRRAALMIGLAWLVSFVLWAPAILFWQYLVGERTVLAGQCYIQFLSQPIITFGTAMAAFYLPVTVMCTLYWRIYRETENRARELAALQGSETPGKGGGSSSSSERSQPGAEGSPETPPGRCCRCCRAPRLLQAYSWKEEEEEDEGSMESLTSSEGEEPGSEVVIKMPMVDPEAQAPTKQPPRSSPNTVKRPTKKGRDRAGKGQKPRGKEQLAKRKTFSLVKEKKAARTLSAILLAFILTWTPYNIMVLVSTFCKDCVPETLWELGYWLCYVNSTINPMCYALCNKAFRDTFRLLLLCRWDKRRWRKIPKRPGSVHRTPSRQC
Format: cell-based
Experimental: The assay studies the effect of one or several concentrations of test compounds on basal or acetylcholine-stimulated Ca^2+ levels using FLIPR.
Compounds are prepared and subjected to a preincubation period of 4 min. Thereafter, a single EC20 concentration of acetylcholine is added to each well (3 nM final). The intracellular Ca^2+ level of each sample is measured and compared to an acetylcholine control to determine any modulatory activity.
Cells: CHOnfat/hM1, hM2, hM3 or hM4 cells are plated 24 hr before the assay at a density of 18,000 cells/well (100 μL) in a 384 well plate. CHOnfat/hM1 and CHOnfat/hM3 Growth Medium: 90% DMEM (Hi Glucose); 10% HI FBS; 2 mM L-glutamine; 0.1 mM NEAA; Pen-Strep; and 1 mg/ml Geneticin, are added. For M2Gqi5CHOnfat and M4Gqi5CHOnfat cells, an additional 600 ug/ml hygromycin is added.
Equipment: 384 well plate, 120 μL addition plate; 96-well Whatman 2 ml Uniplate Incubator, 37° C., 5% CO2; Skatron EMBLA-384 Plate Washer; Multimek Pipetting System; Genesis Freedom 200 System; Mosquito System; Temo Nanolitre Pipetting System; and FLIPR^384 Fluorometric Imaging Plate Reader System are used.
Buffers. Assay Buffer: Hanks Balanced Salt Solution, with 20 mM Hepes, 2.5 mM Probenecid (Sigma P-8761) first dissolved in 1N NaOH, 1% Bovine Serum Albumin (Sigma A-9647). Dye Loading Buffer: Assay Buffer plus 1% Fetal Bovine Serum and Fluo-4AM/Pluronic Acid Mixture. 2 mM Fluo-4AM ester stock in DMSO (Molecular Probes F-14202) Concentration of 2 uM in buffer for a final concentration of 1 μM in Assay. 20% Pluronic Acid Solution stock, with concentration of 0.04% in Buffer, 0.02% in Assay.
65 μL of 2 mM Fluo-4AM are mixed with 130 μL of 20% Pluronic Acid. The resulting solution and 650 μL FBS is added to the assay buffer for a total volume of 65 mL. Positive Controls: 4-Br-A23187: 10 mM in DMSO; final concentration 10 μM. Acetylcholine: 10 mM in water, working stock at both 20 uM and 30 uM in assay buffer, final concentration of 10 μM. This is used to check the maximum stimulation of the CHOK1/hM1 cells. 20 uM (2×) acetylcholine is added in the preincubation part of the assay, and the 30 uM (3×) stock is added in the second part. (EC20) Acetylcholine: 10 mM in water, working stock of 9 nM (3×), and final concentration in assay is 3 nM. This is used after the preincubation with test compounds. Addition of the EC20 Acetylcholine to each well with a test compound will ascertain any modulator activity. 24 wells contain 3 nM Acetylcholine alone as a control.
Determining Activity of Putative Compounds: Screening Plate: Compounds are titrated in 96-well plates (columns 2-11), 100% DMSO, started at a concentration of 15 mM (150× stock concentration), and 3-fold serial dilutions using Genesis Freedom200 System. Four 96-well plates are combined into a 384-well plate using Mosquito Nanolitre Pipetting System by transferring 1 ul of serial diluted compounds to each well, and 1 mM acetylcholine (100× stock concentration) were added as a control. Using Temo, 49 μl assay buffer is added to each well of the 384-well plate right before assay.
In a 96-well Whatman 2 ml Uniplate, 9 nM Acetylcholine (3×) is pipetted into wells corresponding to the screening compounds, and into control wells. The 30 uM acetylcholine control (3×) is added into control wells, and the 3× agonist plate is transferred into a 384 well plate. Cells are washed three times with 100 μL of buffer, leaving […] of buffer in each well. Using Multimek, 30 μL of Dye Loading Buffer is added into each well and incubated at 37° C., 5% CO2 for up to one hr.
After 60 min, the cells are washed three times with 100 μL of buffer, leaving 30 μL of buffer in each well. The cell plate, screening plate, and agonist addition plates are placed on the platform in the FLIPR and the door closed. A signal test to check background fluorescence and basal fluorescence signal is performed. Laser intensity is adjusted if necessary. […]
`COc1cccc(Cn2cc(C(=O)O)c(=O)c3c(F)ccc(F)c32)c1` [Example 2, 5,8-difluoro-1-(3-methoxybenzyl)-4-oxo-1,4-dihydroquinoline-3-carboxylic acid] was tested, and the pEC50 was 5.38. `O=C(O)c1cn(Cc2c(F)cccc2F)c2c(F)ccc(F)c2c1=O` [Example 4, 1-(2,6-difluorobenzyl)-5,8-difluoro-4-oxo-1,4-dihydroquinoline-3-carboxylic acid] was tested, and the pEC50 was 6.21. `COc1ccc(Cn2cc(C(=O)O)c(=O)c3cccc(F)c32)cc1` [Example 5, 8-fluoro-1-(4-methoxybenzyl)-4-oxo-1,4-dihydroquinoline-3-carboxylic acid] gave a pEC50 of 5.94. `COc1ccc(Cn2cc(C(=O)O)c(=O)c3cccc(F)c32)cc1C(F)(F)F` [Example 44, 8-fluoro-1-[4-methoxy-3-(trifluoromethyl)benzyl]-4-oxo-1,4-dihydroquinoline-3-carboxylic acid] was tested, and the pEC50 was 6.10. `O=C(O)c1cn(Cc2ccc(C(F)(F)F)cc2)c2c(F)cccc2c1=O` [Example 52, 8-fluoro-4-oxo-1-[4-(trifluoromethyl)benzyl]-1,4-dihydroquinoline-3-carboxylic acid] gave a pEC50 of 6.01. Molecule `O=C(O)c1cn(Cc2ccc(O)cc2)c2ccccc2c1=O` [Example 71, 1-(4-hydroxybenzyl)-4-oxo-1,4-dihydroquinoline-3-carboxylic acid] has a pEC50 of 6.41.
